Test results reported in patent US7667100B2, “Nucleic acid compositions conferring herbicide resistance” (Dow AgroSciences LLC, priority 2002, dated 2010).

Test system: Arabidopsis thaliana
Experiment: Auxin tolerance testing of stably transformed Arabidopsis thaliana
Type: in vivo
Details: 50 μL of 3.75 g ae/ha solution on one lower leaf, within five days
Text: One of the auxin tolerance sequences, 129965 (SEQ ID NO:10), was selected for stable expression analysis using a model plant system, Arabidopsis thaliana. This required cloning of the GENEWARE® vector insert into a binary vector suitable for Agrobacterium transformation. Agrobacteriuni encoding the gene of interest as well as a selectable marker was then utilized to transform Arabidopsis plants. Transgenic plants derived from the first generation of seed (T1) were selected based on glufosinate resistance and subsequently tested for tolerance to auxin 4-amino-3,6-dichloropyridine-2-carboxylic acid.
Plant growth and maintenance. Freshly harvested Arabidopsis thaliana (Columbia ecotype) seed was allowed to dry at least 7 days at room temperature in the presence of desiccant. Dried seed was sterilized with a 0.1% Triton X-100 (Sigma Chemical Co., St. Louis, Mo.) and 70% ethanol solution (3 min) using 95% ethanol as a wash (30 sec). After sterilization, seed was suspended in a 0.1% agarose (Sigma Chemical Co., St. Louis, Mo.) solution. The suspended seed was stored at 4° C. for 2 days to complete dormancy requirements and ensure synchronous seed germination (stratification).
Sunshine Mix LP5 (Sun Gro Horticulture Inc., Bellevue, Wash.) was covered with fine vermiculite and subirrigated with Hoagland's solution (see Example 9) until wet. The soil mix was allowed to drain for 24 hours. […]

Nc1cc(Cl)nc(C(=O)O)c1Cl [4-amino-3,6-dichloropyridine-2-carboxylic acid, reference compound]
auxin symptoms in wild type plants: systemic symptoms of epinasty and leaf cupping, as well as meristem swelling and significant chlorosis
